In patent US20240425541A1, “OLIGOSACCHARIDE COMPOUNDS AND COMPLEXES” (priority 2021, published 2024):

Experiments:
[1] = Hydrodynamic diameter of complexes by dynamic light scattering (DLS); type: physicochemical
Procedure: Sizes of complexes described in the present examples were analyzed by DynaPro PlateReader II, using dynamic light scattering (DLS) for calculating the hydrodynamic diameter of complexes. The formulations are measured by diluting the sample to 0.0125 mg/mL RNA in 120 μl of MGB (10 mM MES, pH 6.1, 5% D-Glucose) 5% in wells of a 96-well plate. Ten acquisitions are recorded per well, each lasting 5 seconds.

[2] = system: hPBMCs; test: Pro-inflammatory cytokine secretion by hPBMCs 24 hours after transfection (MSD Kit); type: cell-based, human; settings: for Level of secretion of pro-inflammatory cytokines, IL-6, TNF-α, IL-1 and IFN-γ: oligosaccharide + Tween40 1:0.5, modRNA N/P 6, 24 hours, 10^6 hPBMCs
Procedure: All groups received modRNA formulated at N/P 6. Formulations were complexed with RNA in MBG Buffer (final concentration 5% w/v Glucose, 10 mM MES, pH 6.1), at RNA final concentration of 0.15 mg/ml and the mixing ratio of the RNA containing solution and the oligosaccharide+Tween40 containing solution was 9:1 (v:v) for all the cases. IL-6, TNF-α, IL-1p and IFN-γ secretion after 24 hours of transfection of 10^6 hPMBCs was evaluated in the supernatants using MSD Kit Standard Protocol.
FIG. 19A is a plot illustrating IL-6 secretion by hPBMCs upon exposure to different doses of tested formulations. FIG. 19B is a plot illustrating TNF-α secretion by hPBMCs upon exposure to different doses of tested formulations. FIG. 19C is a plot illustrating IL-1p secretion by hPBMCs upon exposure to different doses of tested formulations. FIG. 19D is a plot illustrating IFN-γ secretion by hPBMCs upon exposure to different doses of tested formulations. In the second part of the experiment, the same tested formulations were used in a vaccination study.

[3] = system: Glycoprotein (Gc) of the Crimean-Congo Hemorrhagic Fever Virus (CCHFV); type: in vivo
[4] = system: CCHFV-Gc peptides; type: in vivo, Crimean-Congo Hemorrhagic Fever Virus; settings: JLF99 + Tween40 1:0.5, Gc saRNA 1.3 μg i.m. prime/boost, C57BL/6 IFNAR −/− mice
[5] = system: Influenza; test: Virus neutralizing titers by VNT Assay after i.m. vaccination; type: in vivo, influenza strain California/7/2009; settings: JLF99 + Tween20 1:0.5, HA modRNA 1 μg i.m. prime/boost d0/d28, N/P 6
Description: The animals were subjected to non-invasive serological surveillance over 49 days at different time points (day 0, day 14, day 21, day 28, day 49) and spleen was extracted at the end of the experiment for quantification of CD4/CD8 T-Cell response to Influenza HA peptides. Anti-Influenza HA antibodies in serum were quantified by enzyme-linked immunosorbent assay. Virus neutralizing titers were quantified by VNT Assay. CD4/CD8 T-Cell response was quantified by via IFN-ELISPOT of Splenocytes. FIG. 16A illustrates serological levels of specific IgG against HA over the course of the experiment. FIG. 16B illustrates Influenza specific neutralizing titers over the course of the experiment. FIG. 16C illustrates end-point titration of the serological levels of specific IgG against HA. FIG. 16D illustrates the CD8/CD4 response against HA-peptide pools.

[6] = system: female BALB/c mice; test: In-vivo luciferase expression (bioluminescence) in applied tissue after i.m. injection of formulated modRNA or saRNA; settings: modRNA i.m., N/P 6
Procedure: Eighteen female BALB/c mice were divided into […] study groups. All groups received the same amount of formulated luciferase encoding modRNA or saRNA (1 μg), applied i.m. to each leg. At […] time points (6 hours, 24 hours, 72 hours, 6 days, 8 days, 20 days), in-vivo luciferase expression in applied tissue was measured. Three modRNA groups were formulated with JRL13 at three different N/P Ratios (1, 6, or 12) and three saRNA groups were formulated with JRL13 at three different N/P Ratios (either 1, 6 or 12). N/P ratio is calculated based on the JRL13-RNA charges ratio, as described herein. […] FIG. 4C is a bar graph illustrating quantified bioluminescence over the duration of the experiment for example compositions having indicated N/P ratios comprising modRNA and JRL13. FIG. 4D is a bar graph illustrating quantified bioluminescence over the duration of the experiment for example compositions having indicated N/P ratios comprising saRNA and JRL13.
The present example examines the impact of different cationic groups on intramuscular delivery of saRNA. […] At six time points (6 hours, 24 hours, 72 hours, 6 days, 9 days, 20 days), in-vivo luciferase expression in applied tissue was measured. […] FIG. 5B is a bar graph illustrating quantified bioluminescence over the duration of the experiment and normalized to the JRL13-saRNA group. […]

[7] = system: Hemagglutinin (HA) protein of the influenza strain California/7/2009; test: Anti-Influenza HA IgG in serum by enzyme-linked immunosorbent assay after i.m. vaccination; type: in vivo; settings: for IgG concentration against HA: oligosaccharide + Tween40 1:0.5, HA modRNA 0.5 μg i.m. prime/boost day 0/day 28, N/P6
[8] = system: Influenza HA peptides; test: CD4/CD8 T-Cell response to Influenza HA peptides by IFN-ELISPOT of splenocytes after i.m. vaccination; type: in vivo, influenza strain California/7/2009; settings: JLF99 + Tween20 1:0.5, HA modRNA 1 μg i.m. prime/boost d0/d28, N/P 6
[9] = JLF99 + Tween20 1:0.5, HA modRNA 1 μg i.m. prime/boost d0/d28, N/P 6

With `CCCCCCCCCC(=O)OC1C(OC(=O)CCCCCCCCC)[C@H](OC(=O)CCCCCCCCC)C(CSCCNC(=S)NCCN(C)C)O[C@@H]1O[C@H]1OC(CSCCNC(=S)NCCN(C)C)[C@@H](OC(=O)CCCCCCCCC)C(OC(=O)CCCCCCCCC)C1OC(=O)CCCCCCCCC` (stereo partly drawn) [JLF41] the “Difference in particle size between N/P 1 and N/P 6” value ([1]; modRNA) was “greater difference”.
For `CCCCCCCCCC(=O)OC1C(OC(=O)CCCCCCCCC)[C@H](OC(=O)CCCCCCCCC)C(CSCCNC(=S)NCCN2CCOCC2)O[C@@H]1O[C@H]1OC(CSCCNC(=S)NCCN2CCOCC2)[C@@H](OC(=O)CCCCCCCCC)C(OC(=O)CCCCCCCCC)C1OC(=O)CCCCCCCCC` (stereo partly drawn) [JLF99], the Adjuvanticity ([2]; oligosaccharide + Tween40 1:0.5, modRNA N/P 6) was “strong adjuvanticity”, the “Immunological response to low immunogenic antigen CCHFV-Gc” value ([3]; JLF99 + Tween40 1:0.5, Gc saRNA 1.3 μg i.m. prime/boost d0/d28, N/P6, C57BL/6 IFNAR −/− mice) was “strong immunological response” and the “Antibody levels versus LNP benchmark” value ([3]; after d28 (prior boost), JLF99 + Tween40 1:0.5, Gc saRNA 1.3 μg i.m., C57BL/6 IFNAR −/− mice) was “identical to the ones achieved by the LNP benchmark”. For the same compound, the “Antibody level versus LNP benchmark” value ([3]; d14, JLF99 + Tween40 1:0.5, Gc saRNA 1.3 μg i.m., C57BL/6 IFNAR −/− mice) was “lower than the LNP”, the Hydrodynamic diameter ([1]; saRNA, N/P 6) was “about 150 nm” and the “T-cell responses against Gc-peptides versus LNP benchmark” value [4] was “equally strong”. The “Virus neutralizing titers versus LNP benchmark” value [5] was “same findings”, the “modRNA expression (bioluminescence normalized to the JLF41-modRNA group)” value [6] was “promising modRNA expression” and the “IgG against HA-antigen over the course of the experiment versus LNP benchmark” value [7, 9] was “no apparent differences”. The “Serological concentration of IgG at the end-point (day 49)” value [7, 9] was “comparable to the LNP group”, the “Delivery of and immune response to different RNA platforms” value ([7]; JLF99 + Tween20 1:0.5, taRNA, saRNA or modRNA 1 μg i.m. prime/boost, N/P 6) was “functionally delivered all the RNAs upon i.m injection and elicited a strong immune response” and the “IgG concentration against HA” value [7] was “then by JLF99 and JLF218”. The “CD4-CD8 response versus LNP benchmark” value [8] was “no significant difference”.
In the case of `CCCCCCCCCC(=O)OC1C(OC(=O)CCCCCCCCC)[C@H](OC(=O)CCCCCCCCC)C(CSCCNC(=S)NCCn2ccnc2)O[C@@H]1O[C@H]1OC(CSCCNC(=S)NCCn2ccnc2)[C@@H](OC(=O)CCCCCCCCC)C(OC(=O)CCCCCCCCC)C1OC(=O)CCCCCCCCC` (stereo partly drawn) [JLF110], the “Level of secretion of pro-inflammatory cytokines, IL-6, TNF-α, IL-1 and IFN-γ” value [2] is reported as “medium levels of secretion”.
In the case of `CCCCCCCCCC(=O)OC[C@@]1(O[C@H]2OC(CSCCNC(=S)NCCN3CCOCC3)[C@@H](OC(=O)CCCCCCCCC)C(OC(=O)CCCCCCCCC)C2OC(=O)CCCCCCCCC)O[C@H](CSCCNC(=S)NCCN2CCOCC2)[C@@H](OC(=O)CCCCCCCCC)[C@@H]1OC(=O)CCCCCCCCC` (stereo partly drawn) [JLF218], the “IgG concentration against HA” value [7] is reported as “then by JLF99 and JLF218”.
In the case of `CCCCCCCCCC(=O)OC1C(OC(=O)CCCCCCCCC)[C@H](OC(=O)CCCCCCCCC)C(CSCCNC(=S)NCCN2CCC(C(N)=O)CC2)O[C@@H]1O[C@H]1OC(CSCCNC(=S)NCCN2CCC(C(N)=O)CC2)[C@@H](OC(=O)CCCCCCCCC)C(OC(=O)CCCCCCCCC)C1OC(=O)CCCCCCCCC` (stereo partly drawn) [JLF244], the “Level of secretion of pro-inflammatory cytokines, IL-6, TNF-α, IL-1 and IFN-γ” value [2] is reported as “highest level of secretion” and the “IgG concentration against HA” value [7] is reported as “highest IgG concentration”.
